Columns and labels:
[1] = test system: MPTP induced toxicity on neuronal cells; assay: MPTP induced Parkinsonism in zebrafish, brain pathology (degenerated neurons in mid brain smear); assay type: in vivo; conditions: H&E
Experimental: Fishes were conditioned to consume three pellets a day. […] To prepare fish feed pellets containing L-DOPA 4 μl of 1 ng/μl of L-DOPA stock solution was distributed across 3 fish feed pellets ‘1.3 μl/pellet. Fish were fed, three pellets a day. Concentration of compounds dosed was controlled by number of pellets and the quantity of compound per pellet. Feed pellets without drug but with vehicle were used as placebo or control.
Brain Pathology: Fish were anesthetized with 15° C. water and sacrificed by a cut between the brain and the spinal cord. Brain was dissected and portions of mid brain were removed with a pin and knife. The brain tissue was smeared on a glass slide and stained with Haematoxylin & Eosin respectively for 2 minutes each followed by water washes. Slides were viewed at 45× magnification using Labomed LX 400 microscope. The number of degenerated neurons were counted for three fields per smear. […]

[2] = test system: MPTP induced Parkinsonism in zebrafish; assay: MPTP induced Parkinsonism in zebrafish, locomotor activity; assay type: in vivo; conditions: adult zebrafish, MPTP model; oral in feed pellets; may reflect L-DOPA-induced dyskinesia; FIG. 4
Experimental: The methodology described by Bretaud et al (Neurotoxicol Teratol. 2004 November-December; 26(6), 857-64) was used to study parkinsonism in zebrafish. For MPTP (1-methyl-4-phenyl-1,2,3,6-tetrahydropyridine) induced Parkinsonism, adult zebrafish were injected with 3 μl of 60 μg/g of MPTP as intramuscular injection along the lateral muscles.
Compound B of Formula I or L-DOPA were dosed orally by mixing with the fish feed pellets. Fishes were conditioned to consume three pellets a day. To prepare feed containing 1 ng of Compound B of Formula I, stock of 1 ng/μl Compound B was diluted to 10 μl in Ringer's solution and distributed to 3 fish feed pellets (‘3.3 μl per pellet). Prior to adding Compound B, fish feed pellets were dried at 37° C. for 1 hour to remove moisture. Post addition of Compound B solution and absorption by the pellet, pellets were stored at 4° C. […] Concentration of compounds dosed was controlled by number of pellets and the quantity of compound per pellet. […]
Locomotor Activity: The observation tank was divided into four zones by drawing three vertical lines at equal distances, at a length of 6.25 cm per zone. The number of lines that adult zebrafish crossed over a period of 5 minutes was counted. Fishes were allowed to acclimatize in measurement tanks for a period of 30 minutes before readings were taken. […]

Structure (SMILES): N[C@@H](Cc1ccc(O)c(O)c1)C(=O)O [L-DOPA]
- brain pathology (brain smear appearance, effect on MPTP induced toxicity on neuronal cells) ([1]; FIG. 5): did not have significant effect
- change in neurodegenerative cell number compared to MPTP group ([1]; day 8, FIG. 5): non-significant decrease
- movement behavior on continued treatment (beyond day 3) [2]: heightened movement behavior

From US12121515B2, “Piperidine urea derivatives as soluble epoxide hydrolase inhibitors” (NeuroPn Therapeutics, Inc., priority 2021, dated 2024)
